From patent publication US7635697B2, “Farnesyl protein transferase inhibitors and methods for treating proliferative diseases” (Schering Corporation, priority 2004, dated 2009)
Values joined by “and” are separate entries in the source; they are usually repeats but may differ in a detail not shown here. Identical values can stand only once.

Key:
[1] = biological target: purified human farnesyl protein transferase (Homo sapiens, UniProt P49354+P49356); assay: FPT activity: transfer of [3H] farnesyl from [3H] farnesyl pyrophosphate to biotinylated H-ras peptide (SPA); format: biochemical; details: ranges are stated for a listed group of compounds; range ends given as 'about <' / 'about >'
Experimental: FPT activity was determined by measuring the transfer of [^3H] farnesyl from [^3H] farnesyl pyrophosphate to a biotinylated peptide derived from the C-terminus of H-ras (biotin-CVLS). The reaction mixture contains: 50 mM Tris pH7.7, 5 mM MgCl2, 5 μM Zn^++, 5 mM DTT, 0.1% Triton-X, 0.05 μM peptide, 0.03 nM purified human farnesyl protein transferase, 0.180 μM [^3H] farnesyl pyrophosphate, plus the indicated concentration of tricyclic compound or vehicle control in a total volume of 100 μl. The reaction was incubated in a Vortemp shaking incubator at 37° C., 45 RPM for 60 minutes and stopped with 150 μl of 0.25 M EDTA containing 0.5% BSA and 1.3 mg/ml Streptavidin SPA beads. Radioactivity was measured in a Wallach 1450 Microbeta liquid scintillation counter. Percent inhibition was calculated relative to the vehicle control.

Human tumor cells = assay: Soft Agar Assay (anchorage-independent growth, colony count); format: cell-based; details: ranges are stated for a listed group of compounds, range ends given as 'about <' / 'about >'
Experimental: Anchorage-independent growth is a characteristic of tumorigenic cell lines. Human tumor cells can be suspended in growth medium containing 0.3% agarose and an indicated concentration of a farnesyl transferase inhibitor. The solution can be overlayed onto growth medium solidified with 0.6% agarose containing the same concentration of farnesyl transferase inhibitor as the top layer. After the top layer is solidified, plates can be incubated for 10-16 days at 37° C. under 5% CO2 to allow colony outgrowth. After incubation, the colonies can be stained by overlaying the agar with a solution of MTT (3-[4,5-dimethyl-thiazol-2-yl]-2,5-diphenyltetrazolium bromide, Thiazolyl blue) (1 mg/mL in PBS). Colonies can be counted and the IC50's can be determined.

## Cc1cn(Cc2cccc(NC(=O)C3CN(C4c5ccc(Cl)cc5CCc5cccnc54)CCN3S(C)(=O)=O)c2)cn1 (centres unmarked) [(29.1)]
[1]
  IC50: 0.05 to 8.9 nM and 0.05 to 2.7 nM and 0.05 to 1.2 nM

## Cc1cn(Cc2cccc(NC(=O)C3CN([C@@H]4c5ccc(Cl)cc5CCc5cccnc54)CCN3C(=O)OC3CCCCC3)c2)cn1 (some centres unmarked) [(22.1)]
[1]
  IC50: 0.05 to 8.9 nM and 0.05 to 2.7 nM and 0.05 to 1.2 nM
Human tumor cells; Homo sapiens
  IC50: 0.3 to 50 nM

## Cc1cn(Cc2cccc(NC(=O)C3CN([C@@H]4c5ccc(Cl)cc5CCc5cc(Br)cnc54)CCN3)c2)cn1 (some centres unmarked) [(4.2)]
[1]
  IC50: 0.05 to 8.9 nM
Human tumor cells; Homo sapiens
  IC50: 0.3 to 50 nM

## O=C(Nc1cccc(Cn2ccnc2)c1)[C@H]1CNCCN1C1c2ccc(Cl)cc2CCc2cccnc21 (some centres unmarked) [(14.3)]
[1]
  IC50: 0.05 to 8.9 nM
Human tumor cells; Homo sapiens
  IC50: 0.3 to 50 nM

## O=C(Nc1cccc(Cn2ccnc2)c1)[C@@H]1CN(C2c3ccc(Cl)cc3CCc3cc(Br)cnc32)CCN1 (some centres unmarked) [(12.2)]
[1]
  IC50: 0.05 to 8.9 nM

## O=C(C1CN(C2c3ccc(Cl)cc3CCc3cccnc32)CCN1C(=O)OC1CCCCC1)N(Cc1ccccc1)c1cccc(Cn2ccnc2)c1 (centres unmarked) [(16.1)]
[1]
  IC50: 0.05 to 8.9 nM
Human tumor cells; Homo sapiens
  IC50: 0.3 to 50 nM

## CC(C)(C)OC(=O)N1CCN(C2c3ccc(Cl)cc3CCc3cc(Br)cnc32)CC1C(=O)Nc1cccc(Cn2ccnc2)c1 (single isomer, unassigned) [(1.4)]
[1]
  IC50: 0.05 to 8.9 nM and 0.05 to 2.7 nM and 0.05 to 1.2 nM

## Cc1cn(Cc2cccc(NC(=O)C3CN(C4c5ccc(Cl)cc5CCc5cc(Br)cnc54)CCN3)c2)cn1 (centres unmarked) [(4.3)]
[1]
  IC50: 0.05 to 8.9 nM
Human tumor cells; Homo sapiens
  IC50: 0.3 to 50 nM

## Cc1cn(Cc2cccc(NC(=O)C3CN([C@@H]4c5ccc(Cl)cc5CCc5cccnc54)CCN3C(=O)CC3CCN(C(N)=O)CC3)c2)cn1 (some centres unmarked) [(30.1)]
[1]
  IC50: 0.05 to 8.9 nM and 0.05 to 2.7 nM and 0.05 to 1.2 nM
Human tumor cells; Homo sapiens
  IC50: 0.3 to 50 nM

## Cc1nccn1Cc1cccc(NC(=O)C2CN(C3c4ccc(Cl)cc4CCc4cccnc43)CCN2C(=O)OC2CCCCC2)c1 (centres unmarked) [(31.1)]
Human tumor cells
  IC50: < 0.5 nM

## O=C(Nc1cccc(Cn2ccnc2)c1)C1CN(C2c3ccc(Cl)cc3CCc3cccnc32)CCN1C(=O)OC1CCCCC1 (centres unmarked) [(15.1)]
[1]
  IC50: 0.05 to 8.9 nM and 0.05 to 2.7 nM and 0.05 to 1.2 nM
Human tumor cells; Homo sapiens
  IC50: 0.3 to 50 nM

## O=C(Nc1cccc(Cn2ccnc2)c1)C1CN([C@@H]2c3ccc(Cl)cc3CCc3cccnc32)CCN1C(=O)OC1CCCCC1 (some centres unmarked) [(15.2)]
[1]
  IC50: 0.05 to 8.9 nM and 0.05 to 2.7 nM and 0.05 to 1.2 nM
Human tumor cells; Homo sapiens
  IC50: 0.3 to 50 nM

## CC(C)(C)OC(=O)N1CCN(C2c3ccc(Cl)cc3CCc3cccnc32)C(C(=O)Nc2cccc(Cn3ccnc3)c2)C1 (centres unmarked) [(40.1)]
Human tumor cells; Homo sapiens
  IC50: 0.3 to 50 nM

## Cc1cn(Cc2cccc(NC(=O)C3CN(C4c5ccc(Cl)cc5CCc5cccnc54)CCN3C(=O)OC3CCCCC3)c2)cn1 (centres unmarked) [(21.1)]
[1]
  IC50: 0.05 to 8.9 nM and 0.05 to 2.7 nM and 0.05 to 1.2 nM
Human tumor cells; Homo sapiens
  IC50: 0.3 to 50 nM

## Cc1cn(Cc2cccc(NC(=O)C3CN(C4c5ccc(Cl)cc5CCc5cccnc54)CCN3C(=O)NC3CCCCC3)c2)cn1 (centres unmarked) [(26.1)]
[1]
  IC50: 0.05 to 8.9 nM and 0.05 to 2.7 nM and 0.05 to 1.2 nM

## Cc1cncn1Cc1cccc(NC(=O)C2CN(C3c4ccc(Cl)cc4CCc4cccnc43)CCN2C(=O)OC2CCCCC2)c1 (single isomer, unassigned) [(32.2)]
[1]
  IC50: 0.05 to 8.9 nM

## CC(C)(C)OC(=O)N1CCN(C2c3ccc(Cl)cc3CCc3cc(Br)cnc32)CC1C(=O)Nc1cccc(Cn2ccnc2)c1 (single isomer, unassigned) [(1.3)]
[1]
  IC50: 0.05 to 8.9 nM and 0.05 to 2.7 nM and 0.05 to 1.2 nM
Human tumor cells; Homo sapiens
  IC50: 0.3 to 50 nM

## Cc1cn(Cc2cccc(NC(=O)C3CN([C@@H]4c5ccc(Cl)cc5CCc5cc(Br)cnc54)CCN3C(=O)NC3CCCCC3)c2)cn1 (some centres unmarked) [(5.1)]
[1]
  IC50: 0.05 to 8.9 nM and 0.05 to 2.7 nM
Human tumor cells; Homo sapiens
  IC50: 0.3 to 50 nM

## CC(C)(C)OC(=O)N1CCN([C@@H]2c3ccc(Cl)cc3CCc3cccnc32)C(C(=O)Nc2cccc(Cn3ccnc3)c2)C1 (some centres unmarked) [(40.2)]
Human tumor cells; Homo sapiens
  IC50: 0.3 to 50 nM

## NC(=O)N1CCC(CC(=O)N2CCN(C3c4ccc(Cl)cc4CCc4cccnc43)C(C(=O)Nc3cccc(Cn4ccnc4)c3)C2)CC1 (centres unmarked) [(45.1)]
[1]
  IC50: 0.05 to 8.9 nM
Human tumor cells; Homo sapiens
  IC50: 0.3 to 50 nM

## O=C(Nc1cccc(Cn2ccnc2)c1)[C@@H]1CN(C2c3ccc(Cl)cc3CCc3cc(Br)cnc32)CCN1C1c2ccc(Cl)cc2CCc2cc(Br)cnc21 (some centres unmarked) [(12.1)]
[1]
  IC50: 0.05 to 8.9 nM

## Cc1cn(CCc2ccccc2NC(=O)[C@H]2CN([C@H]3c4ccc(Cl)cc4CCc4cccnc43)CCN2C(=O)OC2CCCCC2)cn1 [(47.1)]
[1]
  IC50: 0.05 to 8.9 nM

## Cc1cn(Cc2cccc(NC(=O)C3CN(C4c5ccc(Cl)cc5CCc5cccnc54)CCN3C(=O)Cc3ccc(Cl)cc3)c2)cn1 (centres unmarked) [(28.1)]
[1]
  IC50: 0.05 to 8.9 nM and 0.05 to 2.7 nM and 0.05 to 1.2 nM
Human tumor cells; Homo sapiens
  IC50: 0.3 to 50 nM

## Cc1cncn1Cc1cccc(NC(=O)C2CN(C3c4ccc(Cl)cc4CCc4cccnc43)CCN2C(=O)OC2CCCCC2)c1 (single isomer, unassigned) [(32.1)]
[1]
  IC50: 0.05 to 8.9 nM and 0.05 to 2.7 nM and 0.05 to 1.2 nM
Human tumor cells; Homo sapiens
  IC50: 0.3 to 50 nM

## Cc1cn(Cc2cccc(NC(=O)C3CN(C4c5ccc(Cl)cc5CCc5cc(Br)cnc54)CCN3C(=O)NC3CCCCC3)c2)cn1 (centres unmarked) [(6.1)]
[1]
  IC50: 0.05 to 8.9 nM and 0.05 to 2.7 nM
Human tumor cells; Homo sapiens
  IC50: 0.3 to 50 nM

## Cc1cn(Cc2cccc(NC(=O)C3CN(C4c5ccc(Cl)cc5CCc5cccnc54)CCN3C(=O)Nc3ccc(Cl)cc3)c2)cn1 (centres unmarked) [(27.1)]
[1]
  IC50: 0.05 to 8.9 nM

## O=C(Nc1cccc(Cn2ccnc2)c1)[C@H]1CN(C2c3ccc(Cl)cc3CCc3cccnc32)CCN1 (mixture of isomers) [(14.2)]
[1]
  IC50: 0.05 to 8.9 nM
Human tumor cells; Homo sapiens
  IC50: 0.3 to 50 nM

## O=C(Nc1cccc(Cn2ccnc2)c1)[C@H]1CN(C2c3ccc(Cl)cc3CCc3cccnc32)CCN1C1c2ccc(Cl)cc2CCc2cccnc21 (some centres unmarked) [(14.1)]
Human tumor cells; Homo sapiens
  IC50: 0.3 to 50 nM
